According to patent US5157052A, “Method for inhibiting IgE production” (priority 1990, dated 1992):
Entries after “also recorded” stand apart in the source; their conditions may differ.

Experiments:
IgE [1] = assay: Serum IgE response induced by FF1-4D5 + H∂A1 anti-IgD antibodies (ELISA, Assay A / Assay F); type: in vivo, mouse (Balb/c female)
Method: Mouse hybridoma cells expressing either FF1-4D5 antibody or H∂A1 antibody are thawed, established in culture, and incubated in mice as ascite tumors. FF1-4D5 antibody is a mouse IgG2a monoclonal antibody of the b allotype that binds the Fd fragment of the ∂ chain of the a allotype IgD which activates β cells through antigen internalization and processing, promoting cognate interactions with antigen-specific T cells (D. K. Goroff et al., J. Immunol. 136: 2382 (1986)). H∂A1 antibody is a mouse IgG2b of the b allotype that binds the Fc fragment of the ∂ chain of the a allotype IgD which activates β cells through crosslinking IgD (I. M. Zitron and B. L. Clevinger, J. Exp. Med. 152: 1135 (1980)). Each antibody is purified from their respective ascites tumor fluid. […] Serum from the injected mice is recovered and the mean concentration of IgE determined.
Serum levels of IgE are determined and IgE levels are shown to be inhibited in a dose dependent manner.
(§1) ELISA (enzyme linked immunosorbant assay) measurements of IgE are as follows. About 5 μg of B1E3 antibody in 100 μl borate buffered saline (pH8.5) is added to wells of a NuncImmulon II 96 well plate (DiRuscio & Assoc., St. Louis, Mo.) at 37° C. for 90 minutes. The non-bound antibody is removed by flicking the plate. Unreacted sites on the plastic plate are blocked by adding about 200 μl of a 2% solution of newborn bovine serum (NBS) in PBS at 37° C. for 60 minutes. The standard IgE (or an unknown murine serum sample) is diluted to between about 4 ng/ml-256 ng/ml in Hanks-HS (20 mM Hepes, 2% NBS in Hanks Balanced Salt Solution, Gibco, Grand Island, N.Y.) or to 1/200 to 1/1000 in Hanks-HS respectively. 100 μl of standard (or unknown dilutions) are added in triplicate to the wells of the plate and allowed to absorb to B1E3 antibody at about 37° C. for 2-4 hours. The solution is removed by flicking the plate and each well is washed with about 0.5 ml 0.05% Tween 20-PBS 5 times. About 100 μl of biotinylated R1E4, called the primary antibody, diluted to 200 ng/ml is added to all wells and incubated at about 4° C. overnight. The solution is removed by flicking the plate and washed 5 times as described above. The developing reagent (Avidin and biotin-horse radish peroxidase) is incubated in 2% NBS in PBS at ambient temperature for 30 minutes, according to manufacturer's specifications (Vector Laboratories, Burlingame, Calif.). About 100 μl of developing reagent is added to each well and incubated at ambient temperature for 30 minutes. Colorimetric substrate for the developing reagent (ABTS peroxidase substrate system, KPL, Gaithersburg, Md.) is prepared by mixing equal volumes of solutions A and B and incubating at ambient temperature for 60 minutes. The developing reagent solution is removed by flicking the plate and washed 5 times as described above. About 100 μl of the mixture of substrates is added to each well and incubated at ambient temperature for 60 minutes. The optical density of each well is determined on a BioTek ELISA reader (Biotek Instruments, Inc., Burlington, Vermont) and the absorbance data transferred electronically to a DEC VAX mainframe computer. A standard curve is fitted to the IgE standard optical densities using straight line, linear regression statistical fits. IgE in the unknown serum samples is determined by comparing the optical density of the unknown to the standard curve and multiplying that number by the dilution of serum used in the assay.
Stimulation of a transient serum IgE response in mouse with two monoclonal antibodies directed against IgD is carried out as follows.
Mouse hybridoma cells expressing either FF1-4D5 antibody or H∂Al antibody are thawed, established in culture, and incubated in CB6 F1 female mice as an ascites tumor and each immunoglobulin is purified from the ascites fluid as described above. […]

IgM = assay: Serum IgM in anti-IgD stimulated mice (two site sandwich ELISA, Assay E); type: in vivo, mouse (Balb/c female); details: 20 μg IP 3x daily days 3 and 4
Method: Sera from mice treated with compounds in accordance with the method of the invention are analyzed for levels of IgG1, IgG2a, IgG3, and IgM.
Measurement of mouse IgM by a two site sandwich ELISA is performed in substantial accordance with the teachings of Assay B except for the following changes. About 250 ng of rabbit anti-mouse IgM (Zymed Laboratories) is used to coat a NuncImmulon 96 well plate. The IgM standard is purchased from Southern Biotech. The standard curve is linear between 8-500 ng/ml. Serum containing IgM is diluted 1/4,000 to 1/60,000. About a 1/10,000 dilution of goat anti mouse IgM conjugated to horse radish peroxidase is used as a combined primary antibody and developing reagent. 100 μl is added to each well and the plate is incubated at about 4° C. overnight. The colorimetric substrate is prepared and used as described in Assay A.
Two groups of 4 Balb/c female mice per group are injected with both 100 μg FF1-4D5 antibody and 100 μg H∂Al antibody. On day 3 and 4 the mice are injected with PBS (Group A) or 20 μg (±) methyl 11α,16-dihydroxy-16-ethyl-9-oxoprosta-5Z,13E-dien-1-oate (Group B) at 7 a.m., 1 p.m. and 7 p.m. in substantial accordance with the teaching of Example 13. On day -1, 7, 8, 9 and 11, 50-100 μl of serum is recovered and analyzed for IgE by Assay A and for IgM by Assay E. The results are shown in Table 6.
Three groups of 5 Balb/c female mice per group are injected with both 100 μg FF1-4D5 antibody and 100 μg H∂A1 antibody on day 0. Group A is a control with no further treatment. On day 3 and 4, the mice are injected with 20 μg (±) methyl 11α,16-dihydroxy-4,4,16-trimethyl-9-oxoprosta-13E-en-1-oate (Group B) or 20 μg (±) methyl 11α,16-dihydroxy-16-methyl-9-oxoprosta-3,5Z,13E-trien-1-oate (Group C) as in Example 13. On day -1 and 8, […] of serum is recovered and analyzed for IgE, IgG1, IgG2a, IgG3 and IgM by Assays A, B, C, D and E, respectively.

[2] = test system: leukocyte membrane proteins; assay: Cell surface density or distribution of leukocyte membrane proteins, overall; type: in vivo, mouse (Balb/c female); details: unstimulated mice, 20 μg
[3] = rat, in vivo
IgE [4] = assay: ED50 for inhibition of IgE calculated from the examples; type: in vivo, mouse; details: for ED50 IgE Inhibition: dose to achieve 50% inhibition of IgE
Method: From the data in the above examples, the effective dose of each prostaglandin to achieve 50% inhibition of IgE (ED50) was calculated.

[5] = Diarrheal effects in rats; details: rat, in vivo, po
IgE [6] = assay: In vitro IgE inhibition; type: cell-based
[7] = J. Pene et al., 1988; cited from earlier work
IgE [8] = assay: Inhibition of de novo IgE synthesis after oral (intragastric) administration; type: in vivo, mouse (Balb/c female); details: for IgE ± SD: 20 μg intragastric TID days 3 and 4
Method: as §1
Three groups of 4 Balb/c female mice per group are injected with both 100 μg FF1-4D5 antibody and 100 μg H∂A1 antibody (Groups B, C, and D). Another group of 4 Balb/c female mice is injected with PBS alone, unstimulated control Group A. One of the stimulated group were not given any prostaglandin control Group B. On day 3 and 4, individual groups receive an intragastric feeding TID of 0.25 ml of 20 μg of (±) methyl 11α,16-dihydroxy-16-methyl-9-oxoprosta-5Z,13E-dien-1-oate (Group C) or 20 μg of prostaglandin E2 (Group D) dissolved in PBS.

[9] = day -1 baseline before treatment
[10] = Table 9, 20 μg IP days 3 and 4, day 8 (control 3539)
[11] = Table 9, 20 μg IP days 3 and 4, day -1 baseline before treatment

Structure (SMILES): CCCCC(O)(CC)C/C=C/[C@H]1[C@H](O)CC(=O)[C@@H]1C/C=C\CCCC(=O)OC (mixture of isomers) [(±) methyl 11α,16-dihydroxy-16-ethyl-9-oxoprosta-5Z,13E-dien-1-oate]
- IgE production (IgE [1]; 20 μg IP 3x daily days 3 and 4, Table 6): IgE production is fully inhibited
- IgE ± SD (IgE [1]; Table 6, 20 μg IP 3x daily days 3 and 4, day 7 (PBS 4545)): 847 ± 67 ng/mL
- IgE ± SD (IgE [1]; Table 6, 20 μg IP 3x daily days 3 and 4, day 8 (PBS 11398)): 1264 ± 173 ng/mL
- IgE ± SD (IgE [1]; Table 6, 20 μg IP 3x daily days 3 and 4, day 9 (PBS 7114)): 1064 ± 106 ng/mL
- IgE ± SD (IgE [1]; Table 6, 20 μg IP 3x daily days 3 and 4, day 11 (PBS 1064)): 808 ± 16 ng/mL
- IgE ± SD (IgE [1]; Table 6, 20 μg IP 3x daily days 3 and 4, day -1 baseline before treatment): < 800 ng/mL
- IgM synthesis (IgM; Table 6): IgM synthesis is not affected
- IgM ± SD (IgM; day 7 (PBS 1488)): 1858 ± 107 µg/mL
- IgM ± SD (IgM; day 8 (PBS 1690)): 2569 ± 803 µg/mL
- IgM ± SD (IgM; day 9 (PBS 1396)): 2104 ± 276 µg/mL
- IgM ± SD (IgM; day 11 (PBS 548)): 725 ± 199 µg/mL
- IgM ± SD (IgM; [9]): 272 ± 19 µg/mL
- cell surface density and distribution [2]: identical cell surface density and distribution as the control group

Structure (SMILES): CCCCCCC(C)(O)C/C=C/[C@H]1[C@H](O)CC(=O)[C@@H]1CCCCCCC(=O)OC (mixture of isomers) [(±) methyl-20-ethyl-11α,16-dihydroxy-16-methyl-9-oxoprost-13E-en-1-oate]
- de novo IgE synthesis (IgE [1]; 20 μg days 3 and 4, Example 24): inhibits de novo IgE synthesis
- IgE ± SD (IgE [1]; Table 13, 20 μg days 3 and 4, day 8 (control 3653)): < 800 ng/mL
- IgE inhibition (IgE [1]; summary statement): excellent IgE inhibition
- diarrhea side effects [3]: essentially free of detrimental diarrhea side effects
- diarrhea side-effect ([3]; po): essentially free of the undesirable diarrhea side-effect
- ED50 IgE Inhibition (IgE [4]): 1.0 μg/mouse/TID
- TD50 at 8 h [5]: 2.7 mg/kg

Structure (SMILES): CCCCC[C@H](O)/C=C/[C@H]1[C@H](O)CC(=O)[C@@H]1CCCCCCC(=O)O [prostaglandin E1, reference compound]
- inhibition of de novo IgE synthesis in vivo (IgE [1]; 20 μg days 3 and 4): lack of inhibition
- IgE ± SD (IgE [1]; [10]): 2958 ± 717 ng/mL
- IgE ± SD (IgE [1]; [11]): < 800 ng/mL
- inhibition of IgE in vivo (IgE [1]; summary statement): only low inhibition in vivo
- inhibition of IgE in vitro (IgE [6]): exhibit inhibition of IgE in vitro

Structure (SMILES): CCCCC[C@H](O)/C=C/[C@H]1[C@H](O)CC(=O)[C@@H]1C/C=C\CCCC(=O)O [prostaglandin E2]
- immunosuppressive effects in vitro [7]: Immunosuppressive effects of prostaglandins in vitro has been demonstrated
- inhibition of de novo IgE synthesis in vivo (IgE [1]; 20 μg days 3 and 4): lack of inhibition
- IgE ± SD (IgE [1]; [10]): 3340 ± 384 ng/mL
- IgE ± SD (IgE [1]; [11]): 897 ± 194 ng/mL
- inhibition of IgE in vivo (IgE [1]; summary statement): only low inhibition in vivo
- ED50 IgE Inhibition (IgE [4]): > 45.0 μg/mouse/TID
- dosage to achieve 50% inhibition of IgE (IgE [4]; text of Example 28): greater than 45 μg/mouse
- inhibition of IgE in vitro (IgE [6]): exhibit inhibition of IgE in vitro
- inhibition of de novo IgE synthesis after oral administration (IgE [8]; 20 μg intragastric TID): ineffective; also recorded: inhibits IgE synthesis slightly, if at all
- IgE ± SD (IgE [8]; day 8 (stimulated control 5792, unstimulated 1015)): 3724 ± 1361 ng/mL
- IgE ± SD (IgE [8]; day 10 (stimulated control 1498)): 1496 ± 219 ng/mL
- IgE ± SD (IgE [8]; [9]): 1094 ± 107 ng/mL
